Entries after “also recorded” stand apart in the source; their conditions may differ.
Columns and labels:
[1] = target: T1, serotonine receptors (Rattus norvegicus, UniProt P14842); experiment: antiserotonine effect in vitro on isolated rat uterus sensitized with diethylstibestrol
T1 construct: isolated rat uterus sensitized with diethylstibestrol; from tissue; host or cells: isolated rat uterus, sensitized with diethylstilbestrol (printed 'diethylstibestrol')

[2] = tested on: serotonine-induced oedema; experiment: antiserotonine effect in vivo: inhibition of serotonine-induced plantar oedema; parameters: species or system rat; conditions: for ED50: Rattus norvegicus, 50 μg serotonine into plantar region of rats
[3] = tested on: reserpine-induced depression; experiment: antidepressant activity: reserpine-induced depression, maximum increase in body temperature; assay type: in vivo; conditions: mice
Method: The new 8β-hydrazinomethyl-ergoline derivatives show antidepressant effects as tested on mice suffering from reserpine-induced depression. An intraperitoneal dosage of 5 mg/kg of reserpine was applied to induce depression. 18 hours later the body temperature of the animals was measured, 30 mg/kg of the compound under examination were administered intraperitoneally into the animals, and the body temperature of the animals was measured hourly for 5 hours. The maximum increase in temperature (i.e. the maximum body temperature measured after administering the compound minus the initial value) was considered as the measure of the antidepressant activity. In these tests Imipramine was used as a reference substance.

T1 sequence (P14842 whole entry): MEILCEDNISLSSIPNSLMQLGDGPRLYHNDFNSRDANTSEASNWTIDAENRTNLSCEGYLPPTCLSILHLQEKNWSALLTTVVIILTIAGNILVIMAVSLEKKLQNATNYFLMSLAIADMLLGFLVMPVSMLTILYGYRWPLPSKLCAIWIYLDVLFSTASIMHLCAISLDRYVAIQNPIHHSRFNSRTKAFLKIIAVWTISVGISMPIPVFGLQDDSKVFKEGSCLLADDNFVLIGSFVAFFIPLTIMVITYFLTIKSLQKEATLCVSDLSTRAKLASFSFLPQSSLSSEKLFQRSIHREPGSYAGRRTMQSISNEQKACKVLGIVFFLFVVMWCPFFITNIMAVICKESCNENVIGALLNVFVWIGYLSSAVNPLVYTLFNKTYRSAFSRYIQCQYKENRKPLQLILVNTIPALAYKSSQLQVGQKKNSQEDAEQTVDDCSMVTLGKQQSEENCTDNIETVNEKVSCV

SMILES	IC50 [1]	ED50 ([2]; po)	ED50 ([2]; sc)	inhibition of serotonine-induced oedema, in words ([2]; parenteral and oral administration)	antidepressant activity, in words [3]
CC(=O)NNC[C@@H]1C=C2c3cccc4[nH]cc(c34)C[C@H]2N(C)C1 [Example 9, 6-Methyl-8β-([N'-acetyl-hydrazino]-methyl)-ergol-9-ene]	3.22 nM	0.78 mg/kg	0.055 mg/kg	outstandingly effective	
CC[C@@H](CO)NC(=O)[C@@H]1C=C2c3cccc4c3c(cn4C)C[C@H]2N(C)C1 [Methysergide, 1-methyl lysergic acid butanolamide, reference compound]		0.64 mg/kg	0.026 mg/kg		
CN(C)C(=O)NNC[C@@H]1C[C@@H]2c3cccc4[nH]cc(c34)C[C@H]2N(C)C1 [Example 6, 6-Methyl-8β-([N'-dimethylcarbamoyl-hydrazino]-methyl)-ergoline]		3 mg/kg	0.05 mg/kg		
CC(=O)NNC[C@@H]1C[C@@H]2c3cccc4[nH]cc(c34)C[C@H]2N(C)C1 [Example 4, 6-Methyl-8β-([N'-acetyl-hydrazino]-methyl)-ergoline]		3 mg/kg	0.3 mg/kg		
CNC(=S)NNC[C@@H]1C=C2c3cccc4[nH]cc(c34)C[C@H]2N(C)C1 [Example 14, 6-Methyl-8β-([N'-methylthiocarbamoyl-hydrazino]-methyl)-ergol-9-ene]					outstandingly effective; also recorded: superior to that of Imipramine
CN(C)C(=O)NNC[C@@H]1C=C2c3cccc4[nH]cc(c34)C[C@H]2N(C)C1 [Example 8, 6-Methyl-8β-([N'-dimethylcarbamoyl-hydrazino]-methyl)-ergol-9-ene]	2.95 nM	3 mg/kg	0.16 mg/kg		
CC(=O)NNC[C@@H]1C[C@@H]2c3cccc4c3c(cn4C)C[C@H]2N(C)C1 [Example 7, 1,6-Dimethyl-8β-([N'-acetyl-hydrazino]-methyl)-ergoline]		3 to 10 mg/kg	0.03 mg/kg		

Source: patent US4235912A, “Biologically active new 8β-hydrazinomethyl-ergoline derivatives and a process for the preparation thereof” (Richter Gedeon Vegyeszeti Gyar Rt, priority 1978, dated 1980)
